The target of series [1] is CCK-A receptor. In words: CCK receptor binding, CCK-A (Pancreas Assay). Here is the method: (§1) The greater affinity of the compounds of the invention for the CCK-B receptor over the CCK-A receptor has also been established using the CCK receptor binding assays described by G. Dal Fornos et al., J. Pharmcol. Exp & Ther. 261, 1056-1063, 1992.
(§2) The binding affinity of the compounds of the invention for the CCK-A receptor (Pancreas Assay) and CCK-B receptor (guinea pig cortex assay) was determined using the procedure of G Dal Forno et al J. Pharmacol. Exp & Ther. 261-1056-1063. The pKi values determined with representative compounds of invention were as follows: […]

The target in series [2] is T1, CCK-B receptor (Cavia porcellus, UniProt H0VZC5).
T1 construct: CCK-B receptor (guinea pig cortex assay); from tissue; host or cells: guinea pig cortex
T1 sequence (H0VZC5 entry or part of it): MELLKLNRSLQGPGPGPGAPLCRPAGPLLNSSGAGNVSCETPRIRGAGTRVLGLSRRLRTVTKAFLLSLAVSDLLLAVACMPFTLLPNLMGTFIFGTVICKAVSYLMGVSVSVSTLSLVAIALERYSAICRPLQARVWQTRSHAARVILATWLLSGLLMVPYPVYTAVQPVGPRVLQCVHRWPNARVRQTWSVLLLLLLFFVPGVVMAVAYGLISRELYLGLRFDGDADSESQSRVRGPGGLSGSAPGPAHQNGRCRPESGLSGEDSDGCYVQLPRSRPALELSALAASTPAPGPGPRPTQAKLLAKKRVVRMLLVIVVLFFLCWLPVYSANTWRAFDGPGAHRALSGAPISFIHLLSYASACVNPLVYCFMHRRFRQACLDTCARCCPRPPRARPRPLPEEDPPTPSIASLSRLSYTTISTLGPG
In words: CCK receptor binding, CCK-B (guinea pig cortex assay). Here is the method:
as §1, §2

For series [3], the target named is T2, CCK-A receptor (Cavia porcellus, UniProt Q63931).
T2 construct: guinea pig isolated ileum longitudinal muscle myenteric plexus preparation; from tissue; host or cells: guinea pig isolated ileum longitudinal muscle-myenteric plexus
T2 sequence (Q63931 1-430): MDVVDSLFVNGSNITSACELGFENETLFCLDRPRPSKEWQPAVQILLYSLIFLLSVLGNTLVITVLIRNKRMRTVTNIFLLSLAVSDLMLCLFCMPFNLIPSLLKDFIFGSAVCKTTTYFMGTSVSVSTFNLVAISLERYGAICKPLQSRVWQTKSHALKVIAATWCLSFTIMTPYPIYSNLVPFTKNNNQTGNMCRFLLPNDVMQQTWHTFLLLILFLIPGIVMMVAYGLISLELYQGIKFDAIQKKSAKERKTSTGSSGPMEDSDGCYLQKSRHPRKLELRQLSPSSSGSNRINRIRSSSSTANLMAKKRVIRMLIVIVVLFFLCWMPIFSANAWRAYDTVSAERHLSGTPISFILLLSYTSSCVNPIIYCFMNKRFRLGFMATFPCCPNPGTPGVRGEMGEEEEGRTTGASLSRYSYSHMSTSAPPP
The series is described as follows: CCK-A antagonist activity, guinea pig isolated ileum longitudinal muscle myenteric plexus (inhibition of contractile activity of CCK-8). The series is classed as cell-based. The method, then: The preparation and use of guinea-pig isolated ileum longitudinal muscle-myenteric plexus has been described by K-H Buchheit et al in Nauyn-Schmeideberg's Arch. Pharmacol, (1985), 329, p36-41 and by V. L. Lucaites et al (1991) in J. Pharmacol. Exp. Ther., 256, 695-703.
The CCK-A antagonist and CCK-B antagonist activities of compounds of the invention were determined using the guinea pig isolated ileum longitudinal muscle myenteric plexus preparation. The compounds were tested using the procedure G Dal
Forno et al J. Pharmacol. Exp & Ther. 261-1056-1063 1992 and the pKb value for each compound was determined.

The subject of series [4] is mice and rats. In words: Toxicity / untoward effects on oral administration to mice and rats. The series is classed as in vivo. Particulars: orally to mice and rats at doses exhibiting anxiolytic activity. From the text:
(§3) The compounds of the invention are essentially non-toxic and therapeutically useful doses.

The test system of series [5] is mice and rats. The series is described as follows: Anxiolytic activity, oral, mice and rats. It counts as in vivo. Particulars: orally to mice and rats.
Description: as §3

Regarding `CC(C)CCN1C(=O)C(NC(=O)Nc2ccccc2)C(=O)N(c2ccccc2)c2cc(Cl)c(Cl)cc21` (centres unmarked) [Example 11, N-[7,8-dichloro-2,4-Dioxo-1-(3-methylbut-1-yl)-5-phenyl-2,3,4,5-tetrahydro-1H-1,5-benzodiazepin-3-yl]-N'-phenylurea], the “pKi CCK-A” value in series [1] was 5.80. Take `CCOC(=O)c1cccc(NC(=O)NC2C(=O)N(CC34CC5CC(CC(C5)C3)C4)c3ccccc3N(c3ccccc3)C2=O)c1` (centres unmarked) [Example 41, N-[1-(1-Adamantylmethyl)-2,4-dioxo-5-phenyl-2,3,4,5-tetrahydro-1H-1,5-benzodiazepin-3-yl]-N'-(3-ethoxycarbonylphenyl)urea]: the “pKi CCK-A” value in series [1] was found to be 6.09.

With `CC(C)CCN1C(=O)C(NC(=O)Nc2ccccc2)C(=O)N(c2ccccc2)c2cc(Cl)ccc21` (centres unmarked) [Example 9, N-[7-Chloro-2,4-dioxo-1-(3-methylbut-1-yl)-5-phenyl-2,3,4,5-tetrahydro-1H-1,5-benzodiazepin-3-yl]-N'-phenylurea], the “pKi CCK-A” value in series [1] is 6.02.

One may read the Ki as a dissociation constant, usually derived from enzyme kinetics or from competition with a known ligand. A lower Ki goes with higher affinity. As to `CC(C)CCN1C(=O)C(NC(=O)Nc2cccc(N(C)C)c2)C(=O)N(c2ccccc2F)c2ccccc21` (single isomer, unassigned; (+)) [Example 27, (+)-N-[2,4-Dioxo-5-(2-fluorophenyl)-1-(3-methylbut-1-yl)-2,3,4,5-tetrahydro-1H-1,5-benzodiazepin-3-yl]-N'-[3-(N,N-dimethylamino)phenyl]urea], the “pKi CCK-A” value in series [1] was found to be 6.83. Affinity in series [2] was put at a Ki of 0.288 nM.

Turning to `O=C(Nc1ccccc1)NC1C(=O)N(CC23CC4CC(CC(C4)C2)C3)c2ccccc2N(c2ccccc2)C1=O` (centres unmarked) [Example 14, N-[1-(1-Adamantyl)methyl-2,4-dioxo-5-phenyl-2,3,4,5-tetrahydro-1H-1,5-benzodiazepin-3-yl]-N'-phenylurea], the “pKi CCK-A” value in series [1] was 6.15. `CC(C)CCN1C(=O)C(NC(=O)Nc2cccc(N(C)C)c2)C(=O)N(c2ccccc2F)c2ccccc21` (centres unmarked) [Example 4, N-[2,4-dioxo-5-(2-fluorophenyl)-1-(3-methylbut-1-yl)-2,3,4,5-tetrahydro-1H-1,5-benzodiazepin-3-yl]-N'-(3-dimethylamino)phenylurea]: the “pKi CCK-A” value in series [1] came out at 6.9. `CC(C)CCN1C(=O)C(NC(=O)Nc2ccccc2)C(=O)N(c2ccccc2)c2ccccc21` (single isomer, unassigned; (+)) [Example 26, (+)-N-[2,4-Dioxo-5-phenyl-1-(3-methylbut-1-yl)-2,3,4,5-tetrahydro-1H-1,5-benzodiazepin-3-yl]-N'-phenylurea]: in series [3] (read-out: pKb CCK-A (converted)), the Kb was ≥ 3160 nM. As to `CC(C)(C)CCN1C(=O)C(NC(=O)Nc2ccccc2)C(=O)N(c2ccccc2)c2ccccc21` (centres unmarked) [Example 16, N-[1-(3,3-Dimethylbutyl)-2,4-dioxo-5-phenyl-2,3,4,5-tetrahydro-1H-1,5-benzodiazepin-3-yl]-N'-phenylurea], the “pKi CCK-A” value in series [1] was found to be 6.95.

With `O=C(Nc1ccccc1)NC1C(=O)N(CC23CC4CC(CC(C4)C2)C3)c2ccccc2N(c2ccccc2)C1=O` (single isomer, unassigned; (+)) [Example 45, (+)-N-[1-(Adamantanmethyl)-2,4-dioxo-5-phenyl-2,3,4,5-tetrahydro-1H-1,5-benzodiazepin-3-yl]-N'-phenylurea], the “pKi CCK-A” value in series [1] came to 5.95. Moreover, the untoward effects result in series [4] was “no untoward effects were observed”. The anxiolytic activity entry in series [5] is on record as “exhibits anxiolytic activity”. As to `CN(C)c1ccc(NC(=O)NC2C(=O)N(CCC3CCCC3)c3ccccc3N(c3ccccc3F)C2=O)cc1` (centres unmarked) [Example 30, N-[1-(2-cyclopentyl-ethyl)-2,4-dioxo-5-(2-fluorophenyl)-2,3,4,5-tetrahydro-1H-1,5-benzodiazepin-3-yl]-N'-[4-(dimethylamino)phenyl]urea], the “pKi CCK-A” value in series [1] turned out to be 7.00.

Consider `O=C(Nc1cccc([N+](=O)[O-])c1)NC1C(=O)N(CC23CC4CC(CC(C4)C2)C3)c2ccccc2N(c2ccccc2)C1=O` (centres unmarked) [Example 39, N-[1-(1-Adamantylmethyl)-2,4-dioxo-5-phenyl-2,3,4,5-tetrahydro-1H-1,5-benzodiazepin-3-yl]-N'-(3-nitrophenyl)urea], for which the “pKi CCK-A” value in series [1] turned out to be 6.52. In the case of `CC(C)(C)C(O)CN1C(=O)C(NC(=O)Nc2ccccc2)C(=O)N(c2ccccc2F)c2ccccc21` (centres unmarked) [Example 7A, N-[1-(3,3-Dimethyl-2-hydroxybut-1-yl)-2,4-dioxo-5-(2-fluorophenyl)-2,3,4,5-tetrahydro-1H-1,5-benzodiazepin-3-yl]-N'-phenylurea], the “pKi CCK-A” value in series [1] is reported as 6.33. Consider `CC(C)CCN1C(=O)C(NC(=O)Nc2ccccc2)C(=O)N(c2ccccc2)c2ccccc21` (centres unmarked) [Example 25, N-[2,4-Dioxo-5-phenyl-1-(3-methylbut-1-yl)-2,3,4,5-tetrahydro-1H-1,5-benzodiazepin-3-yl]-N'-phenylurea], for which the “pKb CCK-A” value in series [3] is given as < 6.0. Take `O=C(Nc1ccccc1)NC1C(=O)N(CC2CC3C=CC2C3)c2ccccc2N(c2ccccc2)C1=O` (centres unmarked) [Example 31, N-[1-(Bicyclo[2.2.1]-5-heptene-2-ylmethyl)-2,4-dioxo-5-phenyl-2,3,4,5-tetrahydro-1H-1,5-benzodiazepin-3-yl]-N'-phenylurea]: the “pKi CCK-A” value in series [1] is 6.76.

Source of the values: US5580895A, “1,5-benzodiazepine derivatives” (Glaxo SpA, priority 1992, dated 1996).
